Assay results reported in US20220064689A1, “AMPHOTERIC GLYCOLIPID BIOSURFACTANT AND ITS PREPARATION METHOD” (Mikros Biochem, priority 2020, published 2022).
Values joined by “and” are separate entries in the source; they are usually repeats but may differ in a detail not shown here. Equal entries are not always repeated.

Legend:
[1] = test system: Candida albicans (ATCC 10231); assay: Antibacterial analysis per national standard WS/T 650-2019, viable count over 28 days; assay type: cell-based; details: 4.0% (aqueous solution of surfactant, or 4.0% sodium benzoate comparative)
Experimental: (§1) Using the protocol set out in the national standard test WS/T 650-2019 “Evaluation Method of Antibacterial and Antibacterial Effects”, the amphiphilic biosurfactant produced as described above was analysed for antibacterial effects.

[2] = test system: Staphylococcus aureus (ATCC 6538); assay: as above; assay type: cell-based; details: 4.0% (aqueous solution of surfactant, or 4.0% sodium benzoate comparative)
Experimental: as §1

`O=C([O-])c1ccccc1.[Na+]` [sodium benzoate] was tested. Which “CFU/mL Candida albicans (ATCC 10231) Day 0” value ([1]; Day 0) did it give?
The value was 4.0 × 10^5 CFU/mL.

And the “CFU/mL Candida albicans (ATCC 10231) Day 7” value ([1]; Day 7)?
Its value is 3.4 × 10^2 CFU/mL.

And the “CFU/mL Candida albicans (ATCC 10231) Day 14” value ([1]; Day 14)?
The value was 3.0 × 10^1 CFU/mL.

And the “CFU/mL Candida albicans (ATCC 10231) Day 21” value ([1]; Day 21)?
Its value is under 10 CFU/mL.

And the “CFU/mL Candida albicans (ATCC 10231) Day 28” value ([1]; Day 28)?
Its value is under 10 CFU/mL.

And the “CFU/mL Staphylococcus aureus (ATCC 6538) Day 0” value ([2]; Day 0)?
Its value is 5.0 × 10^6 CFU/mL and 5.2 × 10^6 CFU/mL.

And the “CFU/mL Staphylococcus aureus (ATCC 6538) Day 14” value ([2]; Day 14)?
Its value is 8.7 × 10^1 CFU/mL.

What about the “CFU/mL Staphylococcus aureus (ATCC 6538) Day 21” value ([2]; Day 21) of the same compound?
Its value is under 10 CFU/mL.
